Results taken from patent publication US4921871A, “Enolamides, pharmaceutical compositions and methods of use thereof for treating inflammation” (Warner-Lambert Company, priority 1987, dated 1990).
Values joined by “and” are separate entries in the source; they are usually repeats but may differ in a detail not shown here. Identical values can stand only once. Blank lines part the entries; values can stand above or below the compound they belong to.

Legend:
leukotriene receptor = target: T1, leukotriene receptor (Cavia porcellus, UniProt Q2NNR5); assay: Binding of 3H-Leukotriene D4 to Guinea Pig Lung Membranes (RBL)
T1 construct: Two pairs of lungs (1.3 g) from freshly sacrificed 300 g male guinea pigs; tissue Kuiper Rabbit Farm, Gary, Ind; (animals); host or cells: guinea pig lung, crude membranes
T1 sequence (Q2NNR5 1-340): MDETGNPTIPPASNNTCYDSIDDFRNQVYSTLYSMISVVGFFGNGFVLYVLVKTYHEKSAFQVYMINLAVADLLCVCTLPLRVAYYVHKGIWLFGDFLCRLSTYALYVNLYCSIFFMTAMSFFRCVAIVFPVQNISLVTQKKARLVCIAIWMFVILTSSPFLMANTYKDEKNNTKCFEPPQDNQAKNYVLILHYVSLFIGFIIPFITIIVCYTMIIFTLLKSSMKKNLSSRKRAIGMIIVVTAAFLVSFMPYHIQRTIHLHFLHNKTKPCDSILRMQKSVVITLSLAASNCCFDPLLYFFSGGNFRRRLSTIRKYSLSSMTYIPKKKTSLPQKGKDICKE
Method: Additionally, the activity, of the compounds having the Formula I of the present invention is determined by the well known leukotriene receptor binding assay that is described by R. F. Bruns, W. J. Thomsen and T. A. Pugsley in Life Sciences, 33, 645 (1983) or the Herxheimer in vivo antiallergy test described in H. Herxheimer, J. Physiol. (London), Vol. 177, p. 251 (1952).
[14,15-^3 H]leukotriene D4 (^3 H-LTD4) (25 Ci/mmol and 40 Ci/mmol) is purchased from New England Nuclear. Unlabeled LTC4 is a gift of Ono Pharmaceuticals (Japan). LTC4, LTD4, and LTE4 are purchased as methyl esters from Paesel GmbH (Frankfurt, W. Germany). Concentrations of the Paesel leukotrienes are calculated from their absorbance at 280 nm. Leukotriene esters are saponified overnight under N2 in 3.3% potassium carbonate at room temperature. Tritiated leukotrienes are stored as received from New England Nuclear at -20° C. Ono LTC4 (5 μg/ml) is stored at -60° C. in phosphate buffer pH - 6.8. Saponified Paesel leukotrienes are stored at -60° C. in 3.3% potassium carbonate (pH 9.0-9.5). Aliquots of leukotrienes are taken from stock solutions immediately after thawing, after which the stock solutions are immediately refrozen. 2-Amino-2-(hydroxymethyl)-1,3-propanediol (Tris) is Sigma pH 7.7 pre-set crystals, and dimethylsulfoxide is Aldrich Gold Label. Preparation of crude lung membranes
Two pairs of lungs (1.3 g) from freshly sacrificed 300 g male guinea pigs (older animals gave substantially lower binding) from Kuiper Rabbit Farm, Gary, Ind. are disrupted with a Polytron PT 10 (setting 4) for 30 seconds in 20 ml ice-cold 50 mM Tris adjusted with HCl to pH 7.7 at 25° C. (Tris buffer), filtered through a single layer of gauze to remove connective tissue, and centrifuged at 50,000 xg for ten min. The pellet is resuspended by homogenization with a Polytron in 20 ml Tris buffer, centrifuged at 50,000 xg for ten min., resuspended, incubated at 37° C. for 30 minutes, and centrifuged again. The final pellet is resuspended in Tris buffer and either used fresh or stored at -70° C.
All incubations are in triplicate for 60 minutes at 25° C. in 12×75 mm polystyrene tubes containing 1 ml Tris buffer with 20 mg original tissue wet weight of guinea pig lung membranes, 0.2 nM ^3 H-LTD4 (6,000-11,000 cpm), 10 mM MgCl2, and 1% dimethylsulfoxide. Leukotrienes are diluted in Tris buffer. All other test compounds dissolved at 10 mM in dimethylsulfoxide on the same day as the experiment, and diluted in dimethylsulfoxide to 100× the final incubation concentration. Control incubations receive an equal volume (10 μl) of dimethylsulfoxide; the resulting concentration of dimethylsulfoxide had no effect on binding. ^3 H-LTD4 is diluted to 2 nM in Tris buffer. The membrane suspension (20 mg/0.89 ml) contains sufficient MgCl2 to give 10 mM final concentration in the incubation. […] All additions are performed at 0° C. Immediately after the last addition, the incubation is initiated by agitating the rack of tubes on a vortex mixer and warming to 25° C. in a water bath. Tubes are vortexed at least once more during the incubation to ensure that the membranes remained suspended. Incubations are terminated after 60 minutes by filtering under reduced pressure through 25 mm Whatman GF/B filters followed by rapid washing three times with 4 ml of ice-cold Tris buffer. Filters are added to scintillation vials with 8 ml Formula 947 (New England Nuclear), left overnight, shaken, and the radioactivity counted in a scintillation counter (efficiency 40%). Nonspecific binding, defined as binding of ^3 H-LTD4 in the presence of 100 nM LTC4, is 300-500 cpm for all lots of ^3 H-LTD4. Binding to the filters in the absence of tissue is about 100 cpm, and is not affected by unlabeled LTC4. Specific binding, defined as total binding minus nonspecific binding, varied considerably from lot to lot of ^3 H-LTD4. […]

[1] = tested on: Human Leukocyte Lipoxygenase; assay: Human Leukocyte Lipoxygenase Assay (LDA-H); format: biochemical
Method: Whole blood is collected from normal volunteers and spun in a refrigerated centrifuge for four minutes at 1°-6° C. at 3800 g. The buffy coat is manually separated and washed twice with chilled 0.83% NH4 Cl and centrifuged at 1000 RPM for ten minutes at 4° C. The white cell is suspended in culture media-EMEM supplemented with 6% Agamma human serum, tricine buffer, and neomycin and recentrifuged at 1000 g to yield a pellet containing the leukocytes used for the preparation of the acetone pentane powder.
The acetone-pentane powder is prepared utilizing a modification of the procedure reported for human platelet lipoxygenase. See Siegel, et al, Arachidonate Metabolism via Lipoxygenase and 12-L-hydro-peroxy-5 Eicosatetraenoic Acid Peroxidase Sensitive to Antiinflammatory Drugs, Proc. Natl. Acad. Sci., U.S.A. 77:308, 1980 and D. P. Wallach and V. R. Brown, A Novel Preparation of Human Platlet Lipoxygenase, Biochem. Biophys. Acta. 663:361, 1981. Buffy coat prepared above is resuspended in 5-7 volumes of cold 0.1M Tris buffer, pH 7.4 containing 0.154M NaCl. The suspension is centrifuged at 13,300 g for ten minutes at 4° C. The resultant pellet is retained, resuspended in five volumes of cold acetone, recentrifuged at 13,300 g and resuspended in five volumes of cold pentane. The pentane suspension is centrifuged for ten minutes at 13,300 g to give a pellet which is dried in the cold under vacuum with periodic pulverization. The dry powder is stable for several weeks when stored at -80° C.
Enzyme stock solution is prepared in the following manner. About 15 mg of the acetone-pentane powder is suspended in 4 ml of cold tris buffer (0.1M, pH 7.4), allowed to stand for five minutes, and homogenized thoroughly. The homogenate is sonicated three times for 15 seconds each time, diluted to 7 ml with cold tris buffer (0.1M, pH 7.4), and centrifuged at 4° C. for 60 minutes at 13,300 g. The supernatent is retained and diluted to a total of 10 ml with cold tris buffer (0.1M, pH 7.4) to give the stock enzyme solution. Additional dilutions of 2-50 fold are done as necessary to locate optimal enzyme reaction rate in the assay described below.
Substrate solution is prepared at 100 μM or 1.0 μM concentrations of arachidonic acid or linoleic acid in 0.1M tris buffer, pH 9.0 containing 20% ethanol.
The enzyme reaction is followed spectrophotometrically by the appearance of a conjugated diene product at 234 nm. The reaction is monitored at 24° C. using a Gilford Model 2600 spectrophotometer. […] The effects of inhibitors on the reaction are compared with control reactions run under indentical conditions. Routinely, each compounds of the present invention is incubated with the enzyme for five minutes prior to addition of substrate to initiate the reaction. Inhibition expressed as IC50 as molar concentration of the compound required to reduce reaction rate to 50% control.

RBL, % Inhibition (leukotriene receptor; 1.00 E -4 M): 0.0%
SMILES: O=C(O)c1ccc(CCc2ccc(NC(=O)C3CS(=O)(=O)c4ccccc4C3=O)cc2)cc1 (stereo not shown) [Example 12, 4-[2-[4-[[(3,4-Dihydro-4-oxo-2H-1-benzothiopyran-3-yl)carbonyl]amino]phenyl]ethyl]benzoic acid, 1,1-dioxide]

RBL, % Inhibition (leukotriene receptor; 1.00 E -4 M): 78.0% and 81.0%
RBL, % Inhibition (leukotriene receptor; 1.00 E -5 M): 7.0%
RBL, % Inhibition (leukotriene receptor; 2.00 E -5 M): 27.0%
RBL, % Inhibition (leukotriene receptor; 2.00 E -6 M): 6.0%
RBL, % Inhibition (leukotriene receptor; 3.15 E -5 M): 80.0%
RBL, % Inhibition (leukotriene receptor; 5.00 E -5 M): 59.0%
RBL, % Inhibition (leukotriene receptor; 5.00 E -6 M): 3.0%
LDAH, % Inhibition ([1]; 2.50 E -5 M): 0.0%
SMILES: O=C(Nc1ccc(CCc2cc(O)c(O)c(O)c2)cc1)C1=C(O)c2ccccc2S(=O)(=O)C1 [Example 36]

IC50 (leukotriene receptor; 0.2 nM 3H-LTD4, guinea pig lung membranes, 60 min, 25 °C, read-out: RBL, concentration for 50% inhibition (IC)): 26.5 µM
LDAH, % Inhibition ([1]; 2.50 E -5 M): 0.0%
LDAH, % Inhibition ([1]; 8.00 E -5 M): 0.0%
SMILES: O=C(Nc1ccc(CCc2ccccc2O)cc1)C1=C(O)c2ccccc2S(=O)(=O)C1 [Example 38]

RBL, % Inhibition (leukotriene receptor; 1.00 E -5 M): 6.0%
RBL, % Inhibition (leukotriene receptor; 1.00 E -6 M): 5.0%
RBL, % Inhibition (leukotriene receptor; 2.00 E -5 M): 12.0%
RBL, % Inhibition (leukotriene receptor; 2.00 E -6 M): 10.0%
RBL, % Inhibition (leukotriene receptor; 5.00 E -5 M): 11.0%
RBL, % Inhibition (leukotriene receptor; 5.00 E -6 M): 13.0%
SMILES: CN(C)c1ccc(CCc2ccc(NC(=O)C3CS(=O)(=O)c4ccccc4C3=O)cc2)cc1 (stereo not shown) [Example 55]

RBL, % Inhibition (leukotriene receptor; 1.00 E -4 M): 43.0%
SMILES: CCCCCCCCCCc1ccc(NC(=O)C(=O)c2sc3ccc(Cl)cc3c2O)cc1 [Example 135, Benzo[b]thiophene-2-acetamide, 5-chloro-N-(4-decylphenyl)-3-hydroxy-α-oxo]

RBL, % Inhibition (leukotriene receptor; 1.00 E -4 M): 12.0%
SMILES: O=C(Nc1ccc(CCc2ccc(Cl)cc2)cc1)C(=O)c1sc2ccccc2c1O [Example 137, Benzo[b]thiophene-2-acetamide, N-[4-[2-(4-chlorophenyl)ethyl]phenyl]-3-hydroxy-α-oxo]

RBL, % Inhibition (leukotriene receptor; 1.00 E -4 M): 25.0%
SMILES: COc1ccc(CCc2ccc(NC(=O)C(=O)c3sc4ccc(Cl)cc4c3O)cc2)cc1OC [Example 139, Benzo[b]thiophene-2-acetamide, 5-chloro-N-[4-[2-(3,4-dimethox-yphenyl)ethyl]phenyl]-3-hydroxy-α-oxo]

RBL, % Inhibition (leukotriene receptor; 1.00 E -4 M): 30.0%
SMILES: O=C(Nc1ccc(CCc2ccc(Cl)cc2)cc1)c1sc2ccccc2c1O [Example 145, Benzo[b]thiophene-2-carboxamide, N-[4-[2-(4-chlorophenyl)ethyl]phenyl]-3-hydroxy]
